The first experiment deals with PDE4. Kind of experiment: Inhibition of PDE4, radioenzymatic phosphodiesterase assay. Type of experiment: biochemical, bovine. Conditions: Table 1, formula (III); 1 μM cyclic AMP. In short, it runs like this: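 PDE4 partially purified from bovine aortic media by 105,000 g centrifugation and anion-exchange chromatography with an NaCl gradient. Activity measured radioenzymatically: product nucleoside separated from nucleotides by anion exchange and counted by liquid scintillation.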
The term IC50 denotes the concentration that inhibits the measured activity by half. As to `COc1ccc(-c2ccc(C3=NN(C)C(=O)Cc4cc(OC)c(OC)cc43)cc2)cc1` [IIIao, 7,8-dimethoxy-1-[4-(4-methoxyphenyl)phenyl]-3-methyl-3,5-dihydro-4H-2,3-benzodiazepin-4-one], the concentration for half-maximal inhibition (IC50) was 1700 nM.
On the same count and under the same terms, to `COc1cc2c(cc1OC)C(c1cccc3ccccc13)=NN(C)C(=O)C2` [IIIaa, 7,8-dimethoxy-3-methyl-1-(1-naphthyl)-3,5-dihydro-4H-2,3-benzodiazepin-4-one] belongs 9300 nM; to `COc1cc2c(cc1OC)C(c1ccc(Br)cc1)=NN(C)C(=O)C2` [IIIan, 1-(4-bromophenyl)-7,8-dimethoxy-3-methyl-3,5-dihydro-4H-2,3-benzodiazepin-4-one], 1800 nM; to `COc1cc2c(cc1OC)C(c1ccc(-c3cc(C(F)(F)F)cc(C(F)(F)F)c3)cc1)=NN(C)C(=O)C2` [IIIaw, 1-{4-[3,5-bis-(trifluoromethyl)phenyl]phenyl}-7,8-dimethoxy-3-methyl-3,5-dihydro-4H-2,3-benzodiazepin-4-one], 16000 nM.
Still for that read-out and setting: to `COc1cc2c(cc1OC)C(c1ccc(-c3ccccc3C)cc1)=NN(C)C(=O)C2` [IIIaq, 7,8-dimethoxy-3-methyl-1-[4-(2-methylphenyl)phenyl]-3,5-dihydro-4H-2,3-benzodiazepin-4-one] belongs 1900 nM.
Still for that read-out and setting: to `COc1cccc(-c2ccc(C3=NN(C)C(=O)Cc4cc(OC)c(OC)cc43)cc2)c1` [IIIaj, 7,8-dimethoxy-1-[4-(3-methoxyphenyl)phenyl]-3-methyl-3,5-dihydro-4H-2,3-benzodiazepin-4-one] belongs 2700 nM.

The same experiment, now with this note: Table 2, formula (XXII); compound at 10 μM.
For the molecule `COc1cc2c(cc1OC)C(c1ccccc1)=N[C@@H](CCCCNC(C)=O)C(=O)N2` [XXIIax, (S)-N-[4-(7,8-dimethoxy-2-oxo-5-phenyl-2,3-dihydro-1H-1,4-benzodiazepin-3-yl)butyl]acetamide], the “PDE4 percentage inhibition at 10 μM” value stood at 6%.
In the case of `COc1cc2c(cc1OC)C(c1ccccc1)=NC(Cc1c[nH]cn1)C(=O)N2` (stereo not drawn) [XXIIar, 7,8-dimethoxy-3-(1H-imidazol-4-ylmethyl)-5-phenyl-1,3-dihydro-2H-1,4-benzodiazepin-2-one], the “PDE4 percentage inhibition at 10 μM” value was found to be 49.3%.

Staying with this experiment, now noted: Table 3, formula (II); 1 μM cyclic AMP.
In turn, `CCN1C(=O)C(Cc2ccccc2C)N=C(c2ccccc2)c2cc(OC)c(OC)cc21` (stereo not drawn) [IIcz, 1-ethyl-7,8-dimethoxy-3-(2-methylbenzyl)-5-phenyl-1,3-dihydro-2H-1,4-benzodiazepin-2-one] registered an IC50 of 4400 nM.
The same measure, in the same setting: to `COc1cc2c(cc1OC)N(C)C(=O)CN=C2c1cccc(Br)c1` [IIax, 5-(3-bromophenyl)-7,8-dimethoxy-1-methyl-1,3-dihydro-2H-1,4-benzodiazepin-2-one] belongs 8200 nM; to `CCN1C(=O)C(Cc2ccccc2CN)N=C(c2ccccc2)c2cc(OC)c(OC)cc21` (stereo not drawn) [IIcg, 3-(2-aminomethylbenzyl)-7,8-dimethoxy-1-ethyl-5-phenyl-1,3-dihydro-2H-1,4-benzodiazepin-2-one], 6700 nM; to `COc1cc2c(cc1OC)N(C)C(=O)CN=C2c1ccc2cc(OCc3ccccc3)ccc2c1` [IIao, 5-(6-benzyloxy-2-naphthyl)-7,8-dimethoxy-1-methyl-1,3-dihydro-1,4-benzodiazepin-2-one], 1600 nM.
For `CCN1C(=O)CN=C(c2ccc(C#CCOCc3ccccc3)cc2)c2cc(OC)c(OC)cc21` [IIbn, 5-{4-[3-(benzyloxy)prop-1-ynyl]phenyl}-1-ethyl-7,8-dimethoxy-1,3-dihydro-2H-1,4-benzodiazepin-2-one], the IC50 is 2950 nM.

The same experiment, now with this note: Table 3, formula (II); compound at 10 μM.
Take `CCN1C(=O)C(C/C=C/c2ccccc2)N=C(c2ccccc2)c2cc(OC)c(OC)cc21` (stereo not drawn) [IIbz, 7,8-dimethoxy-1-ethyl-3-(E-3-phenylpropen-2yl)-5-phenyl-1,3-dihydro-2H-1,4-benzodiazepin-2-one]: the “PDE4 percentage inhibition at 10 μM” value came to 42.3%.
In the case of `COc1cc2c(cc1OC)N(C)C(=O)CN=C2c1ccc(N(C)C)cc1` [IIaj, 7,8-dimethoxy-5-(4-N,N-dimethylaminophenyl)-1-methyl-1,3-dihydro-2H-1,4-benzodiazepin-2-one], the “PDE4 percentage inhibition at 10 μM” value is recorded as 7.9%.
As for `CCN1C(=O)CN=C(c2ccccc2)c2cc(O)c(O)cc21` [IIbk, 1-ethyl-7,8-dihydroxy-5-phenyl-1,3-dihydro-2H-1,4-benzodiazepin-2-one], the “PDE4 percentage inhibition at 10 μM” value is reported as 14.2%.
Same read-out and setting: under `CCN1C(=O)C(Cc2ccc(-c3ccccc3)cc2)N=C(c2ccccc2)c2cc(OC)c(OC)cc21` (stereo not drawn) [IIck, 3-(1,1′-biphenyl-4-ylmethyl)-1-ethyl-7,8-dimethoxy-5-phenyl-1,3-dihydro-2H-1,4-benzodiazepin-2-one] stands 32.2%; under `CCCN1C(=O)CN=C(c2ccccc2)c2cc(OC)c(OC)cc21` [IIbe, 7,8-dimethoxy-5-phenyl-1-propyl-1,3-dihydro-2H-1,4-benzodiazepin-2-one], 34.7%.

The values above are taken from patent US7250410B2, “Cyclic nucleotide phosphodiesterase inhibitors, preparation and uses thereof” (Via Pharmaceuticals, Inc., priority 2001, dated 2007).
